Experimental data: article PMC10920834, “Synthesis, anticancer activity, and molecular docking of half-sandwich iron(II) cyclopentadienyl complexes with maleimide and phosphine or phosphite ligands” (Scientific Reports, 2024)

Tests used:
Assay type in all cases: cell-based, human
[1] = system: HL-60 cells; experiment: Cell viability resazurin assay, HL-60 cells; conditions: for viability of HL-60 cells relative to control: ± SD
Protocol: (§1) The A549 (human non-small cell lung cancer) cell line was obtained from the American Type Culture Collection (ATCC) and cultured in Dulbecco's Modified Eagle Medium (DMEM) with 10% fetal bovine serum (FBS), 2 mM L-Glutamine, 25 mM HEPES and penicillin/streptomycin solution (100 U/ml and 100 µg/ml, respectively). The HL-60 (human promyelocytic leukemia) cell line was also obtained from the American Type Culture Collection (ATCC) and cultured in Iscove’s Modified Dulbecco's Medium (IMDM) with 15% fetal bovine serum (FBS), 2 mM L-Glutamine, 25 mM HEPES and penicillin/streptomycin solution (100 U/ml and 100 µg/ml, respectively). Both cell lines were cultured in flasks at 37 °C in 5% CO2 and sub-cultured every 2–3 days to maintain exponential growth.
(§2) Firstly, resazurin salt powder was dissolved in sterile 1 × PBS. Cells were then seeded on the 96-well plates in the count of 1 × 10^4 in the case of HL-60 cells and of 5 × 10^4 for PBM cells and of 5 × 10^3 for A549 cells per well. A549 cells were seeded 24 h prior to treatment with the complexes to allow cell adherence to 96-well plate. Iron(II) complexes were added to wells to obtain final concentrations of 0.5, 1, 2.5, 5, 10, 25, 50, 100 and 250 μM. Subsequently, plates were incubated at 37 °C in 5% CO2 for 2 h and 24 h. After that 10 μl of resazurin salt was added to each well and plates again were incubated in 37 °C in 5% CO2 for 2 h. Finally, fluorescence was measured with microplate reader Synergy HT (Bio-Tek Instruments, USA) using an excitation wavelength of 530/25 and an emission wavelength of 590/35 nm. The effects of iron(II) complexes were calculated as the percentage of control fluorescence. IC50 (half maximal inhibitory concentration) values were calculated using a website algorithm (https://www.aatbio.com/tools/ic50-calculator). All assays were performed in octuplicate.

[2] = system: A549 cells; experiment: Cell viability resazurin assay, A549 cells; conditions: for viability of A549 cells relative to control: ± SD
Protocol: as §1, §2

[3] = system: PBM cells; experiment: Cell viability resazurin assay, PBM cells; conditions: for viability of PBM cells relative to control: ± SD
Source text: Peripheral blood mononuclear (PBM) cells were isolated from a leukocyte-buffy coat collected from the blood of healthy, non-smoking donors at the Blood Bank in Lodz, Poland. The study protocol received approval from the Committee for Research on Human Subjects of the University of Lodz (17/KBBN-UŁ/III/2019). The initial step of isolation process involved mixing buffy coats with PBS in a 1:1 ratio. Subsequently, the mixture was centrifuged using a density gradient of Lymphosep (Cytogen, Zgierz, Poland) at 2200 RPM for 20 min, employing the lowest values for acceleration and deceleration. PBM cells were collected and washed three times by centrifugation with 1 × PBS. Following isolation, the cells were suspended in RPMI 1640 medium.
as §2

## O=C1C=CC(=O)[N-]1.[C-]#[O+].[Fe+2].c1cc[cH-]c1.c1ccc(P(c2ccccc2)c2ccccc2)cc1 [2a, CpFe(CO)(PPh3)(η^1-N-maleimidato)]
[1]; 2 h incubation, 0.5 µM
  viability of HL-60 cells relative to control: 104.08 ± 2.11%
[1]; 2 h incubation, 1 µM
  viability of HL-60 cells relative to control: 103.34 ± 3.15%
[1]; 2 h incubation, 2.5 µM
  viability of HL-60 cells relative to control: 103.43 ± 2.81%
[1]; 2 h incubation, 5 µM
  viability of HL-60 cells relative to control: 108.69 ± 1.98%
[1]; 2 h incubation, 10 µM
  viability of HL-60 cells relative to control: 115.82 ± 2.26%
[1]; 2 h incubation, 25 µM
  viability of HL-60 cells relative to control: 120.78 ± 3.7%
[1]; 2 h incubation, 50 µM
  viability of HL-60 cells relative to control: 118.68 ± 5.5%
[1]; 2 h incubation, 100 µM
  viability of HL-60 cells relative to control: 116.98 ± 3.65%
[1]; 2 h incubation, 250 µM
  viability of HL-60 cells relative to control: 113.31 ± 3.08%
[1]; 24 h incubation
  IC50: 14.8 µM
[1]; 24 h incubation, 0.5 µM
  viability of HL-60 cells relative to control: 103.09 ± 2.54%
[1]; 24 h incubation, 1 µM
  viability of HL-60 cells relative to control: 104.21 ± 1.11%
[1]; 24 h incubation, 2.5 µM
  viability of HL-60 cells relative to control: 100.69 ± 4.9%
[1]; 24 h incubation, 5 µM
  viability of HL-60 cells relative to control: 79.99 ± 2.5%
[1]; 24 h incubation, 10 µM
  viability of HL-60 cells relative to control: 52.57 ± 0.94%
[1]; 24 h incubation, 25 µM
  viability of HL-60 cells relative to control: 15.3 ± 1.21%
[1]; 24 h incubation, 50 µM
  viability of HL-60 cells relative to control: 10.1 ± 0.23%
[1]; 24 h incubation, 100 µM
  viability of HL-60 cells relative to control: 10.31 ± 0.23%
[1]; 24 h incubation, 250 µM
  viability of HL-60 cells relative to control: 8.4 ± 0.12%
[2]; 2 h incubation, 0.5 µM
  viability of A549 cells relative to control: 84.75 ± 11.62%
[2]; 2 h incubation, 1 µM
  viability of A549 cells relative to control: 71.98 ± 10.47%
[2]; 2 h incubation, 2.5 µM
  viability of A549 cells relative to control: 67.99 ± 8.45%
[2]; 2 h incubation, 5 µM
  viability of A549 cells relative to control: 63.83 ± 8.57%
[2]; 2 h incubation, 10 µM
  viability of A549 cells relative to control: 64.49 ± 7.71%
[2]; 2 h incubation, 25 µM
  viability of A549 cells relative to control: 64.05 ± 10.66%
[2]; 2 h incubation, 50 µM
  viability of A549 cells relative to control: 71.32 ± 8.08%
[2]; 2 h incubation, 100 µM
  viability of A549 cells relative to control: 68.25 ± 7.97%
[2]; 2 h incubation, 250 µM
  viability of A549 cells relative to control: 57.40 ± 11.79%
[2]; 24 h incubation
  IC50: > 250 µM
  cytotoxicity against A549 cells, in words: did not show cytotoxicity
[2]; 24 h incubation, 0.5 µM
  viability of A549 cells relative to control: 73.24 ± 14.30%
[2]; 24 h incubation, 1 µM
  viability of A549 cells relative to control: 63.60 ± 12.84%
[2]; 24 h incubation, 2.5 µM
  viability of A549 cells relative to control: 68.69 ± 13.05%
[2]; 24 h incubation, 5 µM
  viability of A549 cells relative to control: 65.32 ± 9.49%
[2]; 24 h incubation, 10 µM
  viability of A549 cells relative to control: 114.65 ± 23.41%
[2]; 24 h incubation, 25 µM
  viability of A549 cells relative to control: 117.99 ± 19.59%
[2]; 24 h incubation, 50 µM
  viability of A549 cells relative to control: 105.46 ± 17.32%
[2]; 24 h incubation, 100 µM
  viability of A549 cells relative to control: 120.77 ± 9.93%
[2]; 24 h incubation, 250 µM
  viability of A549 cells relative to control: 90.11 ± 9.87%
[2]; 24 h incubation, concentration not given
  A549 cell viability, increase with increasing concentrations to: 120%
[3]; 2 h incubation, 0.5 µM
  viability of PBM cells relative to control: 98.55 ± 3.27%
[3]; 2 h incubation, 1 µM
  viability of PBM cells relative to control: 98.65 ± 4.06%
[3]; 2 h incubation, 2.5 µM
  viability of PBM cells relative to control: 98.07 ± 3.18%
[3]; 2 h incubation, 5 µM
  viability of PBM cells relative to control: 98.94 ± 2.53%
[3]; 2 h incubation, 10 µM
  viability of PBM cells relative to control: 101.13 ± 3.14%
[3]; 2 h incubation, 25 µM
  viability of PBM cells relative to control: 102.46 ± 3.1%
[3]; 2 h incubation, 50 µM
  viability of PBM cells relative to control: 102.7 ± 2.19%
[3]; 2 h incubation, 100 µM
  viability of PBM cells relative to control: 104.68 ± 1.6%
[3]; 2 h incubation, 250 µM
  viability of PBM cells relative to control: 104.85 ± 1.37%
[3]; 24 h incubation
  IC50: 61.4 µM
[3]; 24 h incubation, 0.5 µM
  viability of PBM cells relative to control: 101.47 ± 3.95%
[3]; 24 h incubation, 1 µM
  viability of PBM cells relative to control: 98.54 ± 1.78%
[3]; 24 h incubation, 2.5 µM
  viability of PBM cells relative to control: 101.97 ± 3.08%
[3]; 24 h incubation, 5 µM
  viability of PBM cells relative to control: 102.32 ± 1.76%
[3]; 24 h incubation, 10 µM
  viability of PBM cells relative to control: 88.22 ± 1.4%
[3]; 24 h incubation, 25 µM
  viability of PBM cells relative to control: 64.32 ± 0.17%
[3]; 24 h incubation, 50 µM
  viability of PBM cells relative to control: 55.37 ± 0.71%
[3]; 24 h incubation, 100 µM
  viability of PBM cells relative to control: 38.14 ± 0.33%
[3]; 24 h incubation, 250 µM
  viability of PBM cells relative to control: 32.79 ± 1.16%
